“And” between values parts separate entries of the source, which are not always exact repeats. Equal entries are not always repeated.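 96-well plates; 48 h exposure; 5 concentrations. Endpoints by linear interpolation between flanking doses. Not reached: highest tested concentration assigned. Here, GI50 denotes the concentration required for 50% inhibition of growth. TGI is the concentration that stops growth completely.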
Assays:
Test in all cases: NCI tumour cell line growth inhibition, 48 h
[1] = system: BT-549 breast
[2] = system: DU-145 prostate
[3] = system: HS 578T breast
[4] = system: MDA-MB-231 breast
[5] = system: MDA-MB-435
[6] = system: PC-3 prostate
[7] = system: T-47D breast
[8] = system: DLD-1 colon
[9] = system: DMS 273 small cell lung
[10] = system: M19-MEL melanoma
[11] = system: KM20L2 colon
[12] = system: XF 498 CNS

| SMILES | TGI [1] | TGI [2] | TGI [3] | TGI [4] | TGI [5] | TGI [6] | TGI [7] | GI50 [1] | GI50 [2] | GI50 [3] | GI50 [4] | GI50 [5] | GI50 [6] | GI50 [7] | TGI [8] | TGI [9] | TGI [10] | TGI [11] | TGI [12] |
| --- | --- | --- | --- | --- | --- | --- | --- | --- | --- | --- | --- | --- | --- | --- | --- | --- | --- | --- | --- |
| C/C=C(/COC(C)=O)C(=O)OC1C=C(C=O)C(C)(C)C=C1C (stereo unspecified) | > 100 µM | > 100 µM | > 100 µM | > 100 µM | > 100 µM | > 100 µM | > 100 µM | – | – | – | – | – | – | – | – | – | – | – | – |
| CCOc1cc2ncc(C#N)c(Nc3ccc(OCc4ccccn4)c(Cl)c3)c2cc1NC(=O)/C=C/CN(C)C | 22 µM and > 7.85 µM | 1.93 µM and 4.73 µM | 66.6 µM and > 5.76 µM | 2.99 µM and 5.63 µM | 2.52 µM and 5.37 µM | 8.36 µM and > 9.32 µM | 29.7 µM and > 2.61 µM | 1.97 µM and 0.921 µM | 0.113 µM and 0.181 µM | 0.54 µM and 0.351 µM | 1.35 µM and 1.48 µM | 0.902 µM and 0.77 µM | 1.93 µM and 1.31 µM | – | – | – | – | – | – |
| Cc1c2c(nn1C)CSCc1cc(n(C)n1)CSc1cc(c3ccccc3c1)OCCCc1c(C(=O)O)n(C)c3c-2c(Cl)ccc13 | 11.2 µM | 15.9 µM | 32.7 µM | 18.2 µM | 14.3 µM | 13.2 µM | 15.7 µM | 2.52 µM | 4.52 µM | 4.48 µM | 5.32 µM | 2.45 µM | 3.42 µM | 3.88 µM | – | – | – | – | – |
| NC(=S)N/N=C/c1ncccc1N | > 100 µM | – | > 100 µM | > 100 µM | > 100 µM | > 100 µM | 23.2 µM and > 10 µM | 2.96 µM | 1.04 µM | 37.5 µM | 3.79 µM | 5.17 µM | 6.5 µM | 1.92 µM | – | – | – | – | – |
| COc1ccc(C(C#N)Cc2cc(OC)c(OC)c(OC)c2)cc1 (stereo unspecified) | – | – | – | – | – | – | – | – | – | – | – | – | – | – | > 100 µM | > 100 µM | > 100 µM | – | – |
| COc1ccc(/C=C\c2cc(OC)c(OC)c(OC)c2)cc1OC | > 100 µM | – | 68 µM | > 100 µM | – | > 100 µM | > 100 µM | – | – | – | – | – | – | – | 40.4 µM | – | – | 0.141 µM | 0.401 µM |
| Cc1ccc(S(=O)(=O)Nc2cccc3[nH]c(C(F)(F)F)nc23)cc1 | 52 µM | > 39.9 µM | 38.2 µM | 22.5 µM | > 100 µM | > 68.8 µM | 57 µM | 0.62 µM | 1.2 µM | 0.887 µM | 1.61 µM | 0.204 µM | 0.56 µM | 0.492 µM | – | – | – | – | – |
| C=C1c2[nH]c3c([N+](=O)[O-])c(OC)ccc3c2CCN1C(C)=O | – | – | – | – | – | – | – | – | – | – | – | – | – | – | 38.4 µM | > 100 µM | – | > 100 µM | – |
| CN1CC[C@@H](c2c(O)cc(O)c3c(=O)cc(-c4ccccc4Cl)oc23)[C@@H]1CO | 2.52 µM | > 10 µM | 1 µM | > 10 µM | 1.1 µM | 3.64 µM | 1.1 µM | 0.38 µM | 0.365 µM | 0.233 µM | 0.292 µM | 0.271 µM | 0.314 µM | 0.245 µM | – | – | – | – | – |
| O=C(NN1C(=O)CSC12CCCC2)c1[nH]c2ccc(Br)cc2c1-c1ccccc1 | > 100 µM | > 100 µM | > 100 µM | > 100 µM | 63.7 µM | > 100 µM | > 100 µM | 93.5 µM | > 100 µM | 96.8 µM | 32.5 µM | 23.4 µM | 38.6 µM | 39.1 µM | – | – | – | – | – |
| Nc1[nH]nc2nc(-c3cccs3)cc(C(F)(F)F)c12 | > 25 µM | > 25 µM | > 25 µM | > 25 µM | > 25 µM | > 25 µM | > 25 µM | > 24.1 µM | > 25 µM | > 25 µM | > 25 µM | > 25 µM | > 25 µM | > 25 µM | – | – | – | – | – |
| COc1cccc(-n2ncc3c(N/N=C/c4ccncc4)ncnc32)c1 | > 25 µM | > 25 µM | > 6.41 µM | > 25 µM | > 25 µM | > 25 µM | > 25 µM | > 25 µM | 4.55 µM | 0.322 µM | 3.51 µM | 1.46 µM | > 17.1 µM | > 25 µM | – | – | – | – | – |
| Cc1ccc(C)c(NC(=O)CC/C(=N\NC(=O)c2c(O)ccc3ccccc23)C(C)C(=O)c2ccc(O)cc2)c1 (stereo unspecified) | – | – | – | – | – | – | – | – | – | – | – | – | – | – | > 100 µM | > 100 µM | – | 30 µM | 91.9 µM |
| COc1c(Cl)cc(NC(=S)C#N)cc1Cl | 39.5 µM | > 100 µM | – | 36.1 µM | 92.8 µM | > 100 µM | 90.6 µM | – | – | – | – | – | – | – | > 100 µM | 83.2 µM | 50.2 µM | 54.4 µM | – |
| Cc1ccc(Nc2nc(C)c(C(/C=C/c3ccc(/C=C/C(=N/NC(=O)C[n+]4ccccc4)c4sc(Nc5ccc(C)cc5[N+](=O)[O-])nc4C)cc3)=N\NC(=O)C[n+]3ccccc3)s2)c([N+](=O)[O-])c1 | – | – | – | – | – | – | – | – | – | – | – | – | – | – | > 100 µM | > 100 µM | > 100 µM | > 100 µM | – |
| O=C(Nc1ccc(Cl)c(Cl)c1)O/N=C\c1c(Cl)ccc([N+](=O)[O-])c1Cl | 6.42 µM | 3.23 µM | 38.7 µM | 3.41 µM | 4.43 µM | 3.74 µM | 3.54 µM | 2.57 µM | 1.73 µM | 3.35 µM | 1.56 µM | 1.9 µM | 1.58 µM | 0.778 µM | – | – | – | – | – |
| COc1ccc2ccccc2c1C1OC(=O)c2ccccc21 (stereo unspecified) | – | – | – | – | – | – | – | – | – | – | – | – | – | – | > 100 µM | > 100 µM | > 100 µM | > 100 µM | – |
| CC(C)(O)CC(=O)NCCn1ccc2ncnc(Nc3ccc(Oc4cccc(C(F)(F)F)c4)c(Cl)c3)c21 | > 10 µM | > 10 µM | > 10 µM | > 10 µM | > 10 µM | > 10 µM | > 10 µM | 5.52 µM | 2.96 µM | 4.6 µM | 4.53 µM | 3.98 µM | 3.46 µM | 0.641 µM | – | – | – | – | – |
| Cc1ccccc1NC(=O)C(=O)CC(=O)c1c(C)n([O-])c2ccccc2[n+]1=O | – | – | – | – | – | – | – | – | – | – | – | – | – | – | > 100 µM | > 100 µM | > 100 µM | > 100 µM | – |
| COc1ccc(/C=N/N=C(\N)NO)c(OC)c1 | – | – | – | – | – | – | – | – | – | – | – | – | – | – | > 100 µM | – | > 100 µM | – | – |
| Clc1nc(Cl)c2ncn(C/C=C/COc3cccc(OC/C=C/Cn4cnc5c(Cl)nc(Cl)nc54)c3)c2n1 | > 100 µM | 27.8 µM | > 100 µM | 25.3 µM | > 100 µM | > 100 µM | > 100 µM | 66.1 µM | 14.7 µM | 39.4 µM | 12.7 µM | > 100 µM | 42 µM | 99.8 µM | – | – | – | – | – |

Reference: PubChem BioAssay (NCI)
